In patent US20100331269A1, “TRITERPENES DERIVATIVES AND USES THEREOF AS ANTITUMOR AGENTS OR ANTI-INFLAMMATORY AGENTS” (priority 2006, published 2010) one finds IC50 data, which are given here for twelve molecules.

What is called IC50 is the concentration that gives 50% inhibition.

For one test, the system named is A-549 cells. Nature of the test: Cytotoxicity, Hoechst DNA assay, A-549. The test is classed as cell-based, human. The note with it: ± SD. The text has this:
(§1) Human lung carcinoma (A-549), human colon adenocarcinoma (DLD-1), human normal fibroblasts (WS1), mice melanoma (B16-F1), Human glioma (U-251), Human hepatocellular carcinoma (HEP G2), Human prostate adenocarcinoma (PC-3), Human ovary teratocarcinoma metastatic (PA-1), Human breast adenocarcinona metastatic (MDA-MB-231), Human breast adenocarcinoma (MCF-7) and Human malignant melanoma (SK-MEL-2) cell lines were obtained from the American Type Culture Collection (ATCC). All cell lines were cultured in minimum essential medium containing Earle's salts and L-glutamine (Mediatech Cellgro, Va.), to which was added 10% fetal bovine serum (Hyclone), vitamins (1×), penicillin (100 I.U./mL) and streptomycin (100 μg/mL), essential amino acids (1×) and sodium pyruvate (1×) (Mediatech Cellgro, Va.). Cells were kept at 37° C. in a humidified environment containing 5% CO2.
(§2) The cytotoxicity of triterpenes (1-8) and corresponding glycosides (9-30) (Table 2 below) as well as of germanicane-type triterpenes and glycosides (31-44) (Table 3 below) was assessed towards human cancer (A-549, DLD-1), mouse melanoma (B16-F1) and human normal skin fibroblast (WS1) cell lines using the resazurin reduction test (RTT test) as previously described (O'Brien, J. et al., Eur. J. Biochem. 2000, 267, 5421-5426). Measurements of fluorescence were carried out after 48 continuous hours of contact between compounds and cells. Results presented in Tables 2 and 3 below express the concentration inhibiting 50% of the cell growth (IC50). Known for its activity against A-549, betulinic acid (3) was used as a positive control in this experimentation. […] The cytotoxic activity of some of these compounds was also assessed using the Hoechst DNA assay (Table 4 below).

Another test relates to DLD-1 cells. Briefly: Cytotoxicity, Hoechst DNA assay, DLD-1. It counts as cell-based, human. The note with it: ± SD.
Source text: as §1, §2

Test [1] deals with WS-1 human normal skin fibroblasts. Briefly: Cytotoxicity, resazurin metabolism assay, WS-1. The note with it: 48 h, mean ± SD. It counts as cell-based.
Source text: as §1
(§3) Exponentially growing cells were plated in 96-well microplates (Costar, Corning Inc.) at a density of 5×10^3 cells per well in 100 μL of culture medium and were allowed to adhere for 16 hours before treatment. Increasing concentrations of each compound in DMSO (Sigma-Aldrich) were then added (100 μL per well) and the cells were incubated for 48 h. […] Cytotoxicity was assessed using resazurin (O'Brien, J. et al., Eur. J. Biochem. 2000, 267, 5421-5426) on an automated 96-well Fluoroskan Ascent F1™ plate reader (Labsystems) using excitation and emission wavelengths of 530 nm and 590 nm, respectively. Fluorescence was proportional to the cellular metabolic activity in each well. Survival percentage was defined as the fluorescence in experimental wells compared to that in control wells after subtraction of blank values. Each experiment was carried out three times in triplicata. IC50 results were expressed as mean±standard deviation.
as §2
(In general: The colour change of resazurin is a common sign of viable cells or microbes.)

Test [2] deals with B16-F1 mouse melanoma cells. Nature of the test: Cytotoxicity, resazurin metabolism assay, B16-F1. It counts as cell-based. The settings on record: 48 h, mean ± SD.
Source text: as §1, §3, §2

For a further test, the system named is B16-F1 cells. Briefly: Cytotoxicity, Hoechst DNA assay, B16-F1. It counts as cell-based, mouse. The note with it: ± SD.
Source text: as §1, §2

The test system of test [3] is DLD-1 human colorectal adenocarcinoma cells. Briefly: Cytotoxicity, resazurin metabolism assay, DLD-1. The test is classed as cell-based. The note with it: 48 h, mean ± SD.
Source text: as §1, §3, §2

A further test deals with WS-1 cells. Nature of the test: Cytotoxicity, Hoechst DNA assay, WS-1. The settings on record: ± SD. It counts as cell-based, human.
Source text: as §1, §2

The subject of test [4] is A-549 human lung carcinoma cells. Briefly: Cytotoxicity, resazurin metabolism assay, A-549. The note with it: 48 h, mean ± SD. It counts as cell-based.
Source text: as §1, §3, §2

The test system of test [5] is MCF-7 human breast adenocarcinoma cells. Nature of the test: Cytotoxicity, resazurin metabolism assay, MCF-7. The test is classed as cell-based. The note with it: mean ± SD.
Source text: as §1, §3
(§4) Compounds presented in Table 5 below were also tested in the following tumour cell lines: U-251 (Human glioma), HEP G2 (Human hepatocellular carcinoma), PC-3 (Human prostate adenocarcinoma), PA-1 (Human ovary teratocarcinoma metastatic), MDA-MB-231 (Human breast adenocarcinona metastatic), MCF-7 (Human breast adenocarcinoma) and SK-MEL-2 (Human malignant melanoma).

Test [6] deals with MDA-MB-231 human breast adenocarcinoma cells. Nature of the test: Cytotoxicity, resazurin metabolism assay, MDA-MB-231. The test is classed as cell-based. The settings on record: mean ± SD.
Source text: as §1, §3, §4

In test [7] the test system is PA-1 human ovary teratocarcinoma cells. Briefly: Cytotoxicity, resazurin metabolism assay, PA-1. The test is classed as cell-based. The note with it: mean ± SD.
Source text: as §1, §3, §4

In test [8] the test system is Hep G2 human hepatocellular carcinoma cells. Briefly: Cytotoxicity, resazurin metabolism assay, Hep G2. It counts as cell-based. The settings on record: mean ± SD.
Source text: as §1, §3, §4

The test system of test [9] is PC-3 human prostate adenocarcinoma cells. Briefly: Cytotoxicity, resazurin metabolism assay, PC-3. The test is classed as cell-based. The settings on record: mean ± SD.
Source text: as §1, §3, §4

For a further test, the system named is U-251 human glioma cells. Briefly: Cytotoxicity, resazurin metabolism assay, U-251. It counts as cell-based. The settings on record: mean ± SD.
Source text: as §1, §3, §4

Test [10] has as its system SK-Mel-2 human melanoma cells. Briefly: Cytotoxicity, resazurin metabolism assay, SK-Mel-2. It counts as cell-based. The settings on record: mean ± SD.
Source text: as §1, §3, §4

SMILES strings stand for the structures. Some results are limits rather than exact numbers.

Regarding `C=C(C)[C@@H]1CC[C@]2(CO)CC[C@]3(C)[C@H](CC[C@@H]4[C@@]5(C)CC[C@H](OC(C)=O)C(C)(C)[C@@H]5CC[C@]43C)[C@@H]12` [Compound 6, 3-Acetoxybetulin], the IC50 was 90 ± 10 µM in the test on A-549 cells; > 253 µM in the test on DLD-1 cells; > 253 µM in test [1]; > 253 µM in test [2]; 42 ± 6 µM in the test on B16-F1 cells; > 253 µM in test [3]. Besides, the IC50 was > 180 µM in the test with WS-1 cells and > 253 µM in test [4].

With `C=C(C)[C@@H]1CC[C@]2(C(=O)OC)CC[C@]3(C)[C@H](CC[C@@H]4[C@@]5(C)CC[C@H](O)C(C)(C)[C@@H]5CC[C@]43C)[C@@H]12` [Compound 7, Methyl Betulinate], the IC50 in the test with A-549 cells worked out at 19 ± 2 µM; in the test on DLD-1 cells it was 21 ± 1 µM; in test [1] it was 19 ± 2 µM; in test [2], 26 ± 1 µM; in the test on B16-F1 cells it was 15.7 ± 0.9 µM; in test [3], 25 ± 4 µM. Besides, the values for the IC50 (in the test on WS-1 cells; in test [4]) were 19 ± 4 µM and 19 ± 3 µM, respectively.

For `C=CCOC(=O)C12CCC(C(=C)C)C1C1CCC3C4(C)CCC(O)C(C)(C)C4CCC3(C)C1(C)CC2` (stereo not drawn) [Compound 8, Allyl betulinate], the IC50 (in the test with A-549 cells; in the test on DLD-1 cells; in test [1]; in [2]; in the test on B16-F1 cells; in [3]) was > 225 µM in each case. The IC50 (with WS-1 cells; in [4]) was > 225 µM throughout.

In the case of `C=C(C)[C@@H]1CC[C@]2(C)CC[C@]3(C)[C@H](CC[C@@H]4[C@@]5(C)CC[C@H](O[C@@H]6O[C@@H](C)[C@H](O)[C@@H](O)[C@H]6O)C(C)(C)[C@@H]5CC[C@]43C)[C@@H]12` [Compound 10, 3-O-α-L-Rhamnopyranoside of lupeol], the IC50 (in the test with A-549 cells; in the test on DLD-1 cells; in test [1]; in test [2]; with B16-F1 cells; in test [3]) was > 178 µM in each case. Further, the IC50 (in the test with WS-1 cells; in [4]) was > 178 µM throughout.

Take `C=C(C)[C@@H]1CC[C@]2(CO)CC[C@]3(C)[C@H](CC[C@@H]4[C@@]5(C)CC[C@H](O[C@@H]6O[C@H](CO)[C@@H](O)[C@H](O)[C@H]6O)C(C)(C)[C@@H]5CC[C@]43C)[C@@H]12` [Compound 12, 3-O-β-D-Glucopyranoside of Betulin]: the IC50 (in the test on A-549 cells; with DLD-1 cells; in test [1]; in test [2]; in the test with B16-F1 cells; in test [3]) was > 200 µM in each case. For the same molecule, the IC50 (in the test on WS-1 cells; in test [4]) was > 200 µM in each case.

Consider `C=C(C)[C@@H]1CC[C@]2(CO[C@@H]3O[C@H](CO)[C@@H](O)[C@H](O)[C@H]3O)CC[C@]3(C)[C@H](CC[C@@H]4[C@@]5(C)CC[C@H](O)C(C)(C)[C@@H]5CC[C@]43C)[C@@H]12` [Compound 15, 28-O-β-D-Glucopyranoside of Betulin], for which the IC50 with A-549 cells is > 194 µM; in the test on DLD-1 cells, > 194 µM; in [1] it was > 248 µM; in test [2], > 248 µM; in the test with B16-F1 cells, > 194 µM; in test [3], > 248 µM. Further, the results for the IC50 (with WS-1 cells; in [4]) were > 194 µM and > 248 µM, respectively.

As to `C=C(C)C1CCC2(COC3OC(C)C(O)C(O)C3O)CCC3(C)C(CCC4C5(C)CCC(O)C(C)(C)C5CCC43C)C12` [Compound 16, 28-O-α-L-Rhamnopyranoside of Betulin], the IC50 was > 194 µM in the test on A-549 cells; > 194 µM with DLD-1 cells; > 228 µM in test [1]; > 228 µM in test [2]; > 194 µM in the test with B16-F1 cells; > 228 µM in test [3]. The IC50 with WS-1 cells is > 194 µM; in [4] it was > 228 µM.

For the molecule `C=C(C)[C@@H]1CC[C@]2(C(=O)OC)CC[C@]3(C)[C@H](CC[C@@H]4[C@@]5(C)CC[C@H](O[C@@H]6O[C@@H](C)[C@H](O)[C@@H](O)[C@H]6O)C(C)(C)[C@@H]5CC[C@]43C)[C@@H]12` [Compound 19, 3-O-α-L-Rhamnopyranoside of Methyl Betulinate], the IC50 in the test on A-549 cells is 58 ± 2 µM; in the test on DLD-1 cells it was > 150 µM; in [1], 53 ± 2 µM; in test [2], 55 ± 2 µM; with B16-F1 cells it was 46 ± 1 µM; in [3], > 183 µM. Further, the IC50 was 65 ± 5 µM in the test on WS-1 cells and 59 ± 3 µM in test [4].

Take `C=C(C)[C@@H]1CC[C@]2(C(=O)O)CC[C@]3(C)[C@H](CC[C@@H]4[C@@]5(C)CC[C@H](O[C@@H]6O[C@H](CO)[C@@H](O)[C@H](O)[C@H]6O)C(C)(C)[C@@H]5CC[C@]43C)[C@@H]12` [Compound 21, 3-O-β-D-Glucopyranoside of Betulinic Acid]: the IC50 in the test on A-549 cells was > 178 µM; in the test with DLD-1 cells, 12 ± 3 µM; in [1], > 178 µM; in [2], 49 ± 13 µM; with B16-F1 cells, 17 ± 4 µM; in test [3], 32 ± 9 µM. Besides, the IC50 (in the test with WS-1 cells; in [4]) was > 178 µM throughout.

In the case of `C=C(C)C1CCC2(CO)CCC3(C)C(CCC4C5(C)CCC(OC6OC(CO)C(O)C(O)C6O)C(C)(C)C5CCC43C)C12` [Compound 26, 3-O-β-D-Mannopyranoside of Betulin], the IC50 in test [5] was found to be 9.2 ± 0.4 µM; in [1], 5.3 ± 0.5 µM; in test [6], 9.1 ± 0.2 µM; in [7], 7.6 ± 0.4 µM; in test [3] it was 11 ± 0.5 µM; in [8] it was 8.3 ± 0.4 µM. In addition, the IC50 in test [4] was found to be 7.5 ± 0.1 µM; in [9], 8.6 ± 0.4 µM; with U-251 human glioma cells it was 8.3 ± 0.4 µM; in [10], 8.8 ± 0.4 µM.

`C=C(C)C1CCC2(C(=O)O)CCC3(C)C(CCC4C5(C)CCC(OC6OC(CO)C(O)C(O)C6O)C(C)(C)C5CCC43C)C12` [Compound 29, 3-O-β-D-Mannopyranoside of Betulinic Acid]: the half-maximal inhibitory concentration (IC50) was found to be 20 ± 2 µM in test [5]; 16 ± 3 µM in [1]; 21 ± 2 µM in [6]; 2.2 ± 0.2 µM in test [7]; 14.9 ± 0.5 µM in [3]; 26 ± 2 µM in test [8]. Further, the IC50 was determined as 41 ± 4 µM in [4], 27 ± 3 µM in test [9], 6 ± 2 µM with U-251 human glioma cells and 4.7 ± 0.6 µM in test [10].

As to `C=C(C)[C@@H]1CC[C@]2(C(=O)O)CC[C@]3(C)[C@H](CC[C@@H]4[C@@]5(C)CC[C@H](O[C@@H]6OC[C@@H](O)[C@H](O)[C@H]6O)C(C)(C)[C@@H]5CC[C@]43C)[C@@H]12` [Compound 30, 3-O-β-D-Xylopyranoside of betulinic acid], the IC50 in [5] is 23 ± 4 µM; in [1] it was 21 ± 1 µM; in test [6], 40 ± 4 µM; in test [7], 7.9 ± 0.9 µM; in test [3], 19.2 ± 0.8 µM; in [8] it was 43 ± 3 µM. Further, the IC50 in test [4] stood at 14 ± 2 µM; in test [9] it was 46 ± 8 µM; with U-251 human glioma cells, 26 ± 6 µM; in test [10], 36 ± 4 µM.
